Reference: US7989618B2, “Linezolid crystalline hydrate form and linezolid salts” (DiPharma Francis s.r.l., priority 2007, dated 2011)
Values belong to the compound of their own block, whether it stands above or below them.

Legend:
[1] = as stated in US 2006/0142283 / WO 2005/035530; cited from earlier work
[2] = electrostatic character of the crystals; format: physicochemical; settings: contrary to the known crystalline Form II
[3] = hygroscopicity of the isolated solid; format: physicochemical; settings: amorphous solid

Compound: CC(=O)NC[C@H]1CN(c2ccc(N3CCOCC3)c(F)c2)C(=O)O1 [Form III, Linezolid Form III]
electrostatic character and compactness compared with Form II (in words) [1]: more compact and less electrostatic than the Form II

electrostatic character (in words) [2]: not electrostatic
Compound: CC(=O)NC[C@H]1CN(c2ccc(N3CCOCC3)c(F)c2)C(=O)O1 [linezolid hemihydrate, Linezolid Hemihydrate]

Compound: Linezolid Sulfate
hygroscopicity (in words) [3]: hygroscopic
